pKd: −log10 of the molar value.
Biological target: T1, MD-2 (myeloid differentiation protein 2, rhMD-2) (Homo sapiens, UniProt Q9Y6Y9)
T1 construct: gene LY96; recombinant human MD-2 (rhMD-2, R&D Systems)
T1 sequence (Q9Y6Y9 19-160): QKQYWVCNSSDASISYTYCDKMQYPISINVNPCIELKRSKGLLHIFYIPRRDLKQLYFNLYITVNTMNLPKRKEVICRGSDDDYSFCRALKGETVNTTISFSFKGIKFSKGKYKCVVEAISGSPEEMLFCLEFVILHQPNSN
Test: SPR (ProteOn XPR36); supported by bis-ANS displacement and biotin-LPS competition ELISA; R90A and Y102A abolish binding

- pKd: 4.72
SMILES: COc1cccc(/C=C/C(=O)c2ccc(O)c(O)c2)c1OC [L2H21, (E)‐2,3‐Dimethoxy‐3′,4′‐dihydroxychalcone]

Source: paper PMC5345657, “Targeting myeloid differentiation protein 2 by the new chalcone L2H21 protects LPS‐induced acute lung injury” (Journal of Cellular and Molecular Medicine, 2016)
